From patent EP3057951B1, “METHYLENE LINKED QUINOLINYL MODULATORS OF ROR-GAMMA-T” (Janssen Pharmaceutica NV, priority 2013, dated 2015)
Several values for one entry are separate records, joined by “and”; a condition that tells them apart may be missing. Equal values may be shown once. Where a name gives a salt, the structure may show the parent alone.

Target: T1, wild type human RORγt ligand binding domain (RORyt LBD) (Homo sapiens, UniProt P51449)
T1 construct: His-tag (N); TurboTEV protease cleavage site (ENLYFQG) (N); made in house; host or cells: E. coli (pHIS1, modified pET vector)
T1 sequence (P51449 258-518): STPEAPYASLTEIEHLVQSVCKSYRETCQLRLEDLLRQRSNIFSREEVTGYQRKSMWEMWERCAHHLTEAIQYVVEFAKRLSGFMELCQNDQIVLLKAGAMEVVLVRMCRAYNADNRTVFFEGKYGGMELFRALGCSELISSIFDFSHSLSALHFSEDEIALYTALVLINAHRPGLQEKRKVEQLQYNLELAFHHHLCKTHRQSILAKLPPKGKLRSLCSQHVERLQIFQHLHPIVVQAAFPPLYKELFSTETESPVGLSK
Assay: RORγt ThermoFluor assay (thermal shift, binding affinity KD)
Conditions: not given

| Structure (SMILES) | Kd |
| --- | --- |
| COc1nc2ccc(C(O)(c3ccc(C)nc3C)c3cnnn3C)cc2c(Cl)c1Cc1ccc(C)cc1 (single isomer, unassigned) [Example 20c, (4-Chloro-2-methoxy-3-(4-methylbenzyl)quinolin-6-yl)(2,6-dimethylpyridin-3-yl)(1-methyl-1H-1,2,3-triazol-5-yl)methanol] | 0.62 nM |
| CC(=O)N1CCC(C(O)(c2ccccc2)c2ccc3nc(C)c(Cc4ccc(C(F)(F)F)cc4)c(Cl)c3c2)CC1 (single isomer, unassigned) [Example 27b, 1-(4-((4-Chloro-2-methyl-3-(4-(trifluoromethyl)benzyl)quinolin-6-yl)(hydroxy)(phenyl)methyl)piperidin-1-yl)ethanone] | 0.63 nM |
| COc1nc2ccc(C(O)(c3cnc(C)n3C)c3cnc(C)n3C)cc2c(C#N)c1Cc1ccc(C(F)(F)F)cc1 [Example 11, 6-(bis(1,2-Dimethyl-1H-imidazol-5-yl)(hydroxy)methyl)-2-methoxy-3-(4-(trifluoromethyl)benzyl)quinoline-4-carbonitrile] | 0.013 nM |
| CC(=O)N1CC(C(O)(c2ccc3nc(C)c(Cc4ccc(C(F)(F)F)cc4)c(Cl)c3c2)c2cnnn2C)C1 (single isomer, unassigned) [Example 32b, 1-(3-((4-Chloro-2-methyl-3-(4-(trifluoromethyl)benzyl)quinolin-6-yl)(hydroxy)(1-methyl-1H-1,2,3-triazol-5-yl)methyl)azetidin-1-yl)ethanone] | 0.86 nM |
| Cc1nc2ccc(C(O)(c3ccnc(C(F)(F)F)c3)c3cncn3C)cc2c(Cl)c1Cc1ccc(C(F)(F)F)cc1 (single isomer, unassigned) [Example 30b, (4-Chloro-2-methyl-3-(4-(trifluoromethyl)benzyl)quinolin-6-yl)(1-methyl-1H-imidazol-5-yl)(2-(trifluoromethyl)pyridin-4-yl)methanol] | 300 nM |
| COc1nc2ccc(C(O)(c3ccc(C(F)(F)F)nc3)c3cnnn3C)cc2c(Cl)c1Cc1ccc(C(F)(F)F)cc1 (racemic) [Example 75a, (4-Chloro-2-methoxy-3-(4-(trifluoromethyl)benzyl)quinolin-6-yl)(1-methyl-1H-1,2,3-triazol-5-yl)(6-(trifluoromethyl)pyridin-3-yl)methanol] | 3.3 nM |
| COc1nc2ccc(C(O)(c3cnnn3C)C3CN(C)C3)cc2c(Cl)c1Cc1ccc(C(F)(F)F)cc1 (single isomer, unassigned) [Example 90b, (4-Chloro-2-methoxy-3-(4-(trifluoromethyl)benzyl)quinolin-6-yl)(1-methyl-1H-1,2,3-triazol-5-yl)(1-methylazetidin-3-yl)methanol] | 580 nM |
| COc1nc2ccc(C(O)(c3c(C)noc3C)c3cnnn3C)cc2c(C#N)c1Cc1ccc(C(F)(F)F)cc1 (stereo not drawn) [Example 94, 6-((3,5-Dimethylisoxazol-4-yl)(hydroxy)(1-methyl-1H-1,2,3-triazol-5-yl)methyl)-2-methoxy-3-(4-(trifluoromethyl)benzyl)quinoline-4-carbonitrile] | 0.48 nM |
| COc1nc2ccc(C(O)(c3ccccn3)c3cncn3C)cc2c(Cl)c1Cc1cc2ccccc2s1 (single isomer, unassigned) [Example 59c, (3-(Benzo[b]thiophen-2-ylmethyl)-4-chloro-2-methoxyquinolin-6-yl)(1-methyl-1H-imidazol-5-yl)(pyridin-2-yl)methanol] | 800 nM |
| COc1nc2ccc(C(O)(c3c(C)noc3C)c3cnnn3C)cc2c(Cl)c1Cc1ccc(C(F)(F)F)cc1 (stereo not drawn) [Example 93, (4-Chloro-2-methoxy-3-(4-(trifluoromethyl)benzyl)quinolin-6-yl)(3,5-dimethylisoxazol-4-yl)(1-methyl-1H-1,2,3-triazol-5-yl)methanol] | 0.6 nM |
| COc1nc2ccc(C(O)(c3cnc(C)n3C)c3cnc(C)n3C)cc2c(Cl)c1Cc1ccc(C(F)(F)F)s1 [Example 7, (4-Chloro-2-methoxy-3-((5-(trifluoromethyl)thiophen-2-yl)methyl)quinolin-6-yl)bis(1,2-dimethyl-1H-imidazol-5-yl)methanol•TFA] | 0.032 nM |
| COc1nc2ccc(C(O)(c3ccc(C(F)(F)F)nc3)c3cnnn3C)cc2c(Cl)c1Cc1ccc(C(F)(F)F)cc1 (single isomer, unassigned) [Example 75c, (4-Chloro-2-methoxy-3-(4-(trifluoromethyl)benzyl)quinolin-6-yl)(1-methyl-1H-1,2,3-triazol-5-yl)(6-(trifluoromethyl)pyridin-3-yl)methanol] | 2.5 nM |
| COc1nc2ccc(C(O)(c3cnc(C)n3C)c3cnc(C)n3C)cc2c(Cl)c1Cc1ccccc1C(F)(F)F [Example 6, (4-Chloro-2-methoxy-3-(2-(trifluoromethyl)benzyl)quinolin-6-yl)bis(1,2-dimethyl-1H-imidazol-5-yl)methanol•TFA] | 0.046 nM |
| Cc1ccc(C(O)(c2ccc3nc(C)c(Cc4ccc(C(F)(F)F)cc4)c(Cl)c3c2)c2cnnn2C)c(C)n1 (single isomer, unassigned) [Example 28b, (4-Chloro-2-methyl-3-(4-(trifluoromethyl)benzyl)quinolin-6-yl)(2,6-dimethylpyridin-3-yl)(1-methyl-1H-1,2,3-triazol-5-yl)methanol] | 160 nM |
| COc1nc2ccc(C(O)(c3ccc(C)nc3C)c3cnc(C)n3C)cc2c(Cl)c1Cc1ccc(C(F)(F)F)cc1 (single isomer, unassigned) [Example 57c, (4-Chloro-2-methoxy-3-(4-(trifluoromethyl)benzyl)quinolin-6-yl)(1,2-dimethyl-1H-imidazol-5-yl)(2,6-dimethylpyridin-3-yl)methanol] | 0.02 nM |
| COc1nc2ccc(C(O)(c3ccc(C)nc3C)c3cnc(C)n3C)cc2c(Cl)c1Cc1ccc(C(F)(F)F)cc1 (single isomer, unassigned) [Example 57b, (4-Chloro-2-methoxy-3-(4-(trifluoromethyl)benzyl)quinolin-6-yl)(1,2-dimethyl-1H-imidazol-5-yl)(2,6-dimethylpyridin-3-yl)methanol] | 180 nM |
| CCc1nc2ccc(C(O)(c3cnc(C)n3C)C3CCOCC3)cc2c(Cl)c1Cc1ccc(C(F)(F)F)cc1 (single isomer, unassigned) [Example 34c, (4-Chloro-2-ethyl-3-(4-(trifluoromethyl)benzyl)quinolin-6-yl)(1,2-dimethyl-1H-imidazol-5-yl)(tetrahydro-2H-pyran-4-yl)methanol] | 6.8 nM |
| COc1nc2ccc(C(O)(C3CN(C(C)=O)C3)C3CN(C(C)=O)C3)cc2c(Cl)c1Cc1ccc(C(F)(F)F)cc1 [Example 3, 1,1'-(3,3'-((4-Chloro-2-methoxy-3-(4-(trifluoromethyl)benzyl)quinolin-6-yl)(hydroxy)methylene)bis(azetidine-3,1-diyl))diethanone] | 46 nM |
| CCc1nc2ccc(C(O)(c3cnnn3C)C3CN(C(C)=O)C3)cc2c(C#N)c1Cc1ccc(C(F)(F)F)cc1 (single isomer, unassigned) [Example 36, 6-((1-Acetylazetidin-3-yl)(hydroxy)(1-methyl-1H-1,2,3-triazol-5-yl)methyl)-2-ethyl-3-(4-(trifluoromethyl)benzyl)quinoline-4-carbonitrile] | 0.73 nM |

Target: T2, wild type human RORγt LBD (Homo sapiens, UniProt P51449)
T2 construct: expressed in transfected cells; host or cells: HEK293T
T2 sequence (P51449 258-518): T1 sequence (P51449 258-518)
Assay: RORγt (LBD) Reporter Assay (GAL4-luciferase, HEK293T cells)
Assay type: cell-based
Conditions: 6 µM compound concentration; 6 µM

| Structure (SMILES) | RORγt (LBD) Reporter Assay, % inhibition @ 6 µM |
| --- | --- |
| COc1nc2ccc(C(O)(c3ccc(C)nc3C)c3cnnn3C)cc2c(Cl)c1Cc1ccc(C)cc1 (single isomer, unassigned) [Example 20c, (4-Chloro-2-methoxy-3-(4-methylbenzyl)quinolin-6-yl)(2,6-dimethylpyridin-3-yl)(1-methyl-1H-1,2,3-triazol-5-yl)methanol] | 93% |

Same assay, conditions: HEK293T cells; value after the comma with ∼, > or < could not be included in the average

| Structure (SMILES) | IC50 |
| --- | --- |
| COc1nc2ccc(C(O)(c3ccc(C)nc3C)c3cnnn3C)cc2c(Cl)c1Cc1ccc(C)cc1 (single isomer, unassigned) [Example 20c, (4-Chloro-2-methoxy-3-(4-methylbenzyl)quinolin-6-yl)(2,6-dimethylpyridin-3-yl)(1-methyl-1H-1,2,3-triazol-5-yl)methanol] | 57 nM and ~30 nM |
